Source: PubChem BioAssay AID248 (DTP/NCI, 2004)
Toxic doses and inconclusive results are not listed.

Tested on: L1210 leukemia ip in BDF1 mice, survival T/C
Experiment: NCI In Vivo Anticancer Drug Screen. Data for tumor model L1210 Leukemia (intraperitoneal) in B6D2F1 (BDF1) mice
Settings: endpoint: mean survival time, higher = longer survival
Outline: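 In this screen, tumor-bearing mice given compound are compared to those given vehicle, and their survival values are reported as a treated-to-control quotient.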

[1] = dose: 100.0 mg/kg/injection, schedule: Q01DX001 (ip), vehicle: saline with Tween-80
[2] = dose: 200.0 mg/kg/injection, schedule: Q01DX001 (ip), vehicle: saline with Tween-80
[3] = dose: 100.0 mg/kg/injection, schedule: Q01DX009 (ip), vehicle: Klucel (hydroxypropylcellulose) (HPC)
[4] = dose: 200.0 mg/kg/injection, schedule: Q01DX009 (ip), vehicle: Klucel (hydroxypropylcellulose) (HPC)
[5] = dose: 400.0 mg/kg/injection, schedule: Q01DX009 (ip), vehicle: Klucel (hydroxypropylcellulose) (HPC)
[6] = dose: 100.0 mg/kg/injection, schedule: Q01DX009 (ip), vehicle: saline with Tween-80
[7] = dose: 200.0 mg/kg/injection, schedule: Q01DX009 (ip), vehicle: saline with Tween-80
[8] = dose: 400.0 mg/kg/injection, schedule: Q01DX009 (ip), vehicle: saline with Tween-80
[9] = dose: 100.0 mg/kg/injection, schedule: Q01DX009 (ip), vehicle: water
[10] = dose: 100.0 mg/kg/injection, schedule: Q04DX003 (ip), vehicle: saline with Tween-80
[11] = dose: 200.0 mg/kg/injection, schedule: Q04DX003 (ip), vehicle: saline with Tween-80
[12] = dose: 400.0 mg/kg/injection, schedule: Q04DX003 (ip), vehicle: saline with Tween-80
[13] = dose: 100.0 mg/kg/injection, schedule: Q04DX003 (ip), vehicle: Klucel (hydroxypropylcellulose) (HPC)
[14] = dose: 200.0 mg/kg/injection, schedule: Q04DX003 (ip), vehicle: Klucel (hydroxypropylcellulose) (HPC)
[15] = dose: 400.0 mg/kg/injection, schedule: Q04DX003 (ip), vehicle: Klucel (hydroxypropylcellulose) (HPC)

CN(C)c1ncnc2c1ncn2Cc1ccccc1
T/C [1]: 92 % of control | T/C [2]: 96 % of control

Nc1cc([N+](=O)[O-])cc([N+](=O)[O-])c1Cl
T/C (dose: 100.0 mg/kg/injection, schedule: Q01DX001 (ip), vehicle: Klucel (hydroxypropylcellulose) (HPC)): 93 % of control | T/C (dose: 200.0 mg/kg/injection, schedule: Q01DX001 (ip), vehicle: Klucel (hydroxypropylcellulose) (HPC)): 96 % of control | T/C (dose: 400.0 mg/kg/injection, schedule: Q01DX001 (ip), vehicle: Klucel (hydroxypropylcellulose) (HPC)): 101 % of control

O=C(Nc1ccc2c(c1)C(=O)c1ccccc1C2=O)Nc1cc(C(F)(F)F)ccc1Cl
T/C [3]: 103 % of control | T/C [4]: 97 % of control | T/C [5]: 88 % of control

Cc1ccc2ccccc2c1NS(=O)(=O)c1ccccc1
T/C (dose: 100.0 mg/kg/injection, schedule: Q01DX001 (ip), vehicle: saline sonified): 95 % of control | T/C [6]: 90 % of control | T/C (dose: 200.0 mg/kg/injection, schedule: Q01DX001 (ip), vehicle: saline sonified): 95 % of control | T/C [7]: 90 % of control | T/C (dose: 400.0 mg/kg/injection, schedule: Q01DX001 (ip), vehicle: saline sonified): 97 % of control | T/C [8]: 88 % of control

Cc1cccc(CSc2nc(N)nc3c2ncn3C2CC(O)C(CO)O2)n1 (configuration not stated)
T/C (dose: 100.0 mg/kg/injection, schedule: Q01DX005 (ip), vehicle: saline): 104 % of control | T/C (dose: 100.0 mg/kg/injection, schedule: Q01DX009 (ip), vehicle: saline): 113 % of control | T/C (dose: 200.0 mg/kg/injection, schedule: Q01DX005 (ip), vehicle: saline): 107 % of control | T/C (dose: 600.0 mg/kg/injection, schedule: Q01DX009 (ip), vehicle: saline): 153 % of control

O=c1cc(-c2ccccc2)nc2ccccn12
T/C [1]: 101 % of control | T/C [2]: 101 % of control | T/C (dose: 400.0 mg/kg/injection, schedule: Q01DX001 (ip), vehicle: saline with Tween-80): 95 % of control

COc1ccc(CN(C)CCN(C)CCN(C)Cc2ccc(OC)cc2)cc1
T/C (dose: 25.0 mg/kg/injection, schedule: Q01DX009 (ip), vehicle: water): 105 % of control | T/C (dose: 50.0 mg/kg/injection, schedule: Q01DX009 (ip), vehicle: water): 99 % of control | T/C [9]: 101 % of control

OC1C=NC(N2CCN(c3ccccc3)CC2)=Cc2ccccc21 (configuration not stated)
T/C [10]: 97 % of control | T/C [11]: 95 % of control | T/C [12]: 92 % of control

C/C(=N/N=C(N)N)c1ccc(Cl)cc1
T/C (dose: 15.0 mg/kg/injection, schedule: Q01DX Z (ip), vehicle: carboxymethylcellulose (CMC)): 96 % of control | T/C (dose: 15.0 mg/kg/injection, schedule: Q01DX Z (oral), vehicle: carboxymethylcellulose (CMC)): 108 % of control | T/C (dose: 30.0 mg/kg/injection, schedule: Q01DX Z (ip), vehicle: carboxymethylcellulose (CMC)): 95 % of control | T/C (dose: 30.0 mg/kg/injection, schedule: Q01DX Z (oral), vehicle: carboxymethylcellulose (CMC)): 104 % of control | T/C (dose: 60.0 mg/kg/injection, schedule: Q01DX Z (oral), vehicle: carboxymethylcellulose (CMC)): 98 % of control

O=C(O)CN1C(=O)CN=C(c2ccccn2)c2cc(Cl)ccc21
T/C [3]: 99 % of control | T/C [13]: 100 % of control | T/C [4]: 100 % of control | T/C [14]: 100 % of control | T/C [5]: 97 % of control | T/C [15]: 97 % of control

CN(C)S(=O)(=O)Oc1ccc(S(=O)(=O)F)cc1Cl
T/C (dose: 100.0 mg/kg/injection, schedule: Q04DX002 (ip), vehicle: saline): 112 % of control | T/C (dose: 200.0 mg/kg/injection, schedule: Q04DX002 (ip), vehicle: saline): 104 % of control | T/C (dose: 400.0 mg/kg/injection, schedule: Q04DX002 (ip), vehicle: saline): 112 % of control

O=C(Nc1cccc(Cl)c1Cl)Sc1ccccc1O
T/C [3]: 104 % of control | T/C [4]: 97 % of control

Cc1ccc(Cl)cc1S
T/C (dose: 16.0 mg/kg/injection, schedule: Q01DX015 (ip), vehicle: saline): 96 % of control | T/C (dose: 32.0 mg/kg/injection, schedule: Q01DX015 (ip), vehicle: saline): 94 % of control | T/C (dose: 64.0 mg/kg/injection, schedule: Q01DX015 (ip), vehicle: saline): 100 % of control | T/C [9]: 100 % of control | T/C (dose: 100.0 mg/kg/injection, schedule: Q04DX003 (ip), vehicle: water): 94 % of control | T/C (dose: 128.0 mg/kg/injection, schedule: Q01DX015 (ip), vehicle: saline): 88 % of control

O=[N+]([O-])c1ccc2c(c1)CCCC2
T/C (dose: 100.0 mg/kg/injection, schedule: Q01DX009 (ip), vehicle: other): 98 % of control | T/C (dose: 100.0 mg/kg/injection, schedule: Q04DX003 (ip), vehicle: other): 105 % of control | T/C (dose: 200.0 mg/kg/injection, schedule: Q01DX009 (ip), vehicle: other): 104 % of control | T/C (dose: 200.0 mg/kg/injection, schedule: Q04DX003 (ip), vehicle: other): 96 % of control | T/C (dose: 400.0 mg/kg/injection, schedule: Q01DX009 (ip), vehicle: other): 116 % of control | T/C (dose: 400.0 mg/kg/injection, schedule: Q04DX003 (ip), vehicle: other): 92 % of control

CC(C)CCCC(C)C1CCC2C3CC=C4CC(OC(=O)Nc5ccc(S(=O)(=O)N(C)C)cc5)CCC4(C)C3CCC12C (configuration not stated)
T/C (dose: 100.0 mg/kg/injection, schedule: Q01DX001 (sc), vehicle: steriod suspending solution): 103 % of control | T/C (dose: 200.0 mg/kg/injection, schedule: Q01DX001 (sc), vehicle: steriod suspending solution): 103 % of control | T/C (dose: 400.0 mg/kg/injection, schedule: Q01DX001 (sc), vehicle: steriod suspending solution): 103 % of control

O=C1CCC2=C(CCCCCC2)N1c1ccccc1
T/C [10]: 110 % of control | T/C [11]: 110 % of control | T/C [12]: 98 % of control

O=[N+]([O-])C(Cl)(Cl)C(Cl)(Cl)[N+](=O)[O-]
T/C (dose: 2.5 mg/kg/injection, schedule: Q01DX009 (ip), vehicle: other): 97 % of control | T/C (dose: 2.5 mg/kg/injection, schedule: Q04DX003 (ip), vehicle: other): 100 % of control | T/C (dose: 5.0 mg/kg/injection, schedule: Q01DX001 (ip), vehicle: saline): 94 % of control | T/C (dose: 5.0 mg/kg/injection, schedule: Q01DX009 (ip), vehicle: other): 95 % of control | T/C (dose: 5.0 mg/kg/injection, schedule: Q04DX003 (ip), vehicle: other): 102 % of control | T/C (dose: 10.0 mg/kg/injection, schedule: Q01DX001 (ip), vehicle: saline): 94 % of control | T/C (dose: 10.0 mg/kg/injection, schedule: Q01DX009 (ip), vehicle: other): 90 % of control | T/C (dose: 10.0 mg/kg/injection, schedule: Q04DX003 (ip), vehicle: other): 88 % of control | T/C (dose: 20.0 mg/kg/injection, schedule: Q01DX001 (ip), vehicle: saline): 92 % of control | T/C (dose: 40.0 mg/kg/injection, schedule: Q01DX001 (ip), vehicle: saline): 86 % of control | T/C (dose: 80.0 mg/kg/injection, schedule: Q01DX001 (ip), vehicle: saline): 100 % of control

COC1=NS(=O)(=O)CC(N2C(=O)CCC2=O)O1 (configuration not stated)
T/C [13]: 98 % of control | T/C [14]: 109 % of control | T/C [15]: 101 % of control

c1ccc2c(c1)ccc1c3ccccc3[nH]c21
T/C [10]: 93 % of control | T/C [11]: 105 % of control | T/C [12]: 96 % of control

COc1ccccc1C(=O)CC(O)(C(F)(F)F)C(F)(F)F
T/C [6]: 105 % of control | T/C [7]: 103 % of control | T/C [8]: 103 % of control

CC(O)Cc1c(Cc2ccccc2)nc(N)[nH]c1=O (configuration not stated)
T/C (dose: 100.0 mg/kg/injection, schedule: Q04DX003 (ip), vehicle: saline): 96 % of control | T/C (dose: 200.0 mg/kg/injection, schedule: Q04DX003 (ip), vehicle: saline): 97 % of control | T/C (dose: 400.0 mg/kg/injection, schedule: Q04DX003 (ip), vehicle: saline): 92 % of control

OC(CBr)C(O)CBr (configuration not stated)
T/C (dose: 12.5 mg/kg/injection, schedule: Q01DX009 (ip), vehicle: saline): 101 % of control | T/C (dose: 25.0 mg/kg/injection, schedule: Q01DX009 (ip), vehicle: saline): 97 % of control | T/C (dose: 50.0 mg/kg/injection, schedule: Q01DX009 (ip), vehicle: saline): 97 % of control
